According to ChEMBL document CHEMBL1127216, “Diastereoselective synthesis of cyclopropyl phenylalanines and their incorporation into dipeptides” (Bioorg Med Chem Lett, 1993):

What was measured:
[1] = molecular target: T1, Gastrin/cholecystokinin type B receptor (Mus musculus, UniProt P56481); test: Compound was tested for the inhibition of specific binding of [125I]bolton Hunter CCK-8 to Cholecystokinin type B receptor in mouse cerebral cortex; format: tissue-based
T1 sequence (P56481 whole entry): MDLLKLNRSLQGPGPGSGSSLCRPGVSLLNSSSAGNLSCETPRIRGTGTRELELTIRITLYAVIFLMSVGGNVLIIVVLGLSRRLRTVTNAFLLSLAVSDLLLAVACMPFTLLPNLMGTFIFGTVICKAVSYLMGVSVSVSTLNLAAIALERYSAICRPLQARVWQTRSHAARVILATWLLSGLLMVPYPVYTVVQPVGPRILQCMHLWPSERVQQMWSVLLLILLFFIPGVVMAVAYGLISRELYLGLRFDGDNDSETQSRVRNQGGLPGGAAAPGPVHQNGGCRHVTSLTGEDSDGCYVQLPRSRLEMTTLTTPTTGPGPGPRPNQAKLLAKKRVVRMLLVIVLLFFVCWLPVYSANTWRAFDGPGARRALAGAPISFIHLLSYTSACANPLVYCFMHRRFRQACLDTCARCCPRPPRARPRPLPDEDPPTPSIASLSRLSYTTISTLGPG

[2] = molecular target: T2, Cholecystokinin receptor type A (Rattus norvegicus, UniProt P30551); test: Compound was tested for the inhibition of specific binding of [125I]bolton Hunter CCK-8 to Cholecystokinin type A receptor in the rat pancreas
T2 sequence (P30551 whole entry): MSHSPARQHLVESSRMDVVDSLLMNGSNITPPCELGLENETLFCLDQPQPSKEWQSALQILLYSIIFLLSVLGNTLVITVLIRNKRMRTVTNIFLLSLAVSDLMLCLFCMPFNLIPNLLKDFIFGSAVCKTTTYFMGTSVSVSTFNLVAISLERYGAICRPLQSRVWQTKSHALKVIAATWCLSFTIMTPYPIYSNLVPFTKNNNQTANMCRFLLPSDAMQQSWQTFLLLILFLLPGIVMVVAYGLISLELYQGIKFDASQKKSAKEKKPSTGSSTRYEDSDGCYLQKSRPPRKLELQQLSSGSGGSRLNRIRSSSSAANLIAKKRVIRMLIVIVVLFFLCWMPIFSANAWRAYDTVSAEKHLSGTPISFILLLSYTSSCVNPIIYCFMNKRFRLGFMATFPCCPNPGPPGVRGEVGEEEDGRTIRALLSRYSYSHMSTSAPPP

COC(=O)/C(=C/c1ccccc1)NC(=O)[C@@](C)(Cc1c[nH]c2ccccc12)NC(=O)OC1C2CC3CC(C2)CC1C3 (some centres undefined)
IC50 [1]: 270 nM

COC(=O)[C@]1(NC(=O)[C@@](C)(Cc2c[nH]c3ccccc23)NC(=O)OC2C3CC4CC(C3)CC2C4)C[C@H]1c1ccccc1 (some centres undefined)
IC50 [2]: 720 nM
IC50 [1]: 600 nM

C[C@](Cc1c[nH]c2ccccc12)(NC(=O)OC1C2CC3CC(C2)CC1C3)C(=O)N/C(=C\c1ccccc1)C(=O)O (some centres undefined)
IC50 [2]: 60 nM
IC50 [1]: 54 nM

COC(=O)[C@@]1(NC(=O)[C@@](C)(Cc2c[nH]c3ccccc23)NC(=O)OC2C3CC4CC(C3)CC2C4)C[C@H]1c1ccccc1 (some centres undefined)
IC50 [2]: 26 nM
IC50 [1]: 3.9 nM

C[C@](Cc1c[nH]c2ccccc12)(NC(=O)OC1C2CC3CC(C2)CC1C3)C(=O)N[C@@]1(C(=O)O)C[C@H]1c1ccccc1 (some centres undefined)
IC50 [2]: 84 nM
IC50 [1]: 140 nM
